This experiment deals with Ctenocephalides felis. Description: Systemic activity against adult cat fleas (Ctenocephalides felis). It is filed as functional.
Take `C=C(C)[C@H]1C(=O)c2c3c(cc4c5c(n1c24)[C@@]1(C)C(CC[C@H]2[C@](C)(/C=C/C=C(\C)C(=O)Nc4ccc(F)cc4)[C@@H](O)CC[C@@]21C)C5)C1=CC(C)(C)OC(C)(C)C1[C@@H]3O` (stereo not given in full): the “Effective concentration, systemic activity against adult cat fleas” value (“Effective concentration” for short) amounted to 1 p.p.m.

`C=C(C)[C@H]1C(=O)c2c3c(cc4c5c(n1c24)[C@@]1(C)C(CC[C@H]2[C@](C)(/C=C/C=C(\C)C(=O)NC(C)(C)C(=O)OC)[C@@H](O)CC[C@@]21C)C5)C1=CC(C)(C)OC(C)(C)C1[C@@H]3O` (stereo not given in full): the “Effective concentration” value came to 1 p.p.m.

As to `C=C(C)[C@H]1C(=O)c2c3c(cc4c5c(n1c24)[C@@]1(C)C(CC[C@H]2[C@](C)(/C=C/C=C(\C)C(=O)NC)[C@@H](O)CC[C@@]21C)C5)C1=CC(C)(C)OC(C)(C)C1[C@@H]3O` (stereo not given in full), the “Effective concentration” value is given as approximately 0.1 p.p.m.

In the case of `C=C(C)[C@H]1C(=O)c2c3c(cc4c5c(n1c24)[C@@]1(C)C(CC[C@H]2[C@](C)(/C=C/C=C(\C)C(=O)OC)[C@@H](O)CC[C@@]21C)C5)C1=CC(C)(C)OC(C)(C)C1[C@@H]3O` (stereo not given in full), the “Effective concentration” value was approximately 10 p.p.m.

Consider `C=C(C)[C@H]1C(=O)c2c3c(cc4c5c(n1c24)[C@@]1(C)C(CC[C@H]2[C@](C)(/C=C/C=C(\C)C(=O)NCC(N)=O)[C@@H](O)CC[C@@]21C)C5)C1=CC(C)(C)OC(C)(C)C1[C@@H]3O` (stereo not given in full), for which the “Effective concentration” value worked out at 10 p.p.m.

In the case of `C=C(C)[C@H]1C(=O)c2c3c(cc4c5c(n1c24)[C@@]1(C)C(CC[C@H]2[C@](C)(/C=C/C=C(\C)C(=O)N(CC)CCC)[C@@H](O)CC[C@@]21C)C5)C1=CC(C)(C)OC(C)(C)C1[C@@H]3O` (stereo not given in full), the “Effective concentration” value is approximately 0.1 p.p.m.

`C=C(C)[C@H]1C(=O)c2c3c(cc4c5c(n1c24)[C@@]1(C)C(CC[C@H]2[C@](C)(/C=C/C=C(\C)C(=O)OCCOCCO)[C@@H](O)CC[C@@]21C)C5)C1=CC(C)(C)OC(C)(C)C1[C@@H]3O` (stereo not given in full): the “Effective concentration” value was determined as 0.1 p.p.m.

As for `C=C(C)[C@H]1C(=O)c2c3c(cc4c5c(n1c24)[C@@]1(C)C(CC[C@H]2[C@](C)(/C=C/C=C(\C)C(=O)N(C)C)[C@@H](O)CC[C@@]21C)C5)C1=CC(C)(C)OC(C)(C)C1[C@@H]3O` (stereo not given in full), the “Effective concentration” value is listed as approximately 0.1 p.p.m.

On to `C=C(C)[C@H]1C(=O)c2c3c(cc4c5c(n1c24)[C@@]1(C)C(CC[C@H]2[C@](C)(/C=C/C=C(\C)C(=O)NCc4ccc(Cl)cc4)[C@@H](O)CC[C@@]21C)C5)C1=CC(C)(C)OC(C)(C)C1[C@@H]3O` (stereo not given in full), for which the “Effective concentration” value stood at 0.1 p.p.m.

`C=C(C)[C@H]1C(=O)c2c3c(cc4c5c(n1c24)[C@@]1(C)C(CC[C@H]2[C@](C)(/C=C/C=C(\C)C(=O)N4CCCCC4)[C@@H](O)CC[C@@]21C)C5)C1=CC(C)(C)OC(C)(C)C1[C@@H]3O` (stereo not given in full): the “Effective concentration” value is listed as approximately 1 p.p.m.

As to `C=C(C)[C@H]1C(=O)c2c3c(cc4c5c(n1c24)[C@@]1(C)C(CC[C@H]2[C@](C)(C=O)[C@@H](O)CC[C@@]21C)C5)C1=CC(C)(C)OC(C)(C)C1[C@@H]3O` (stereo not given in full), the “Effective concentration” value was approximately 10 p.p.m.

`C=C(C)[C@H]1C(=O)c2c3c(cc4c5c(n1c24)[C@@]1(C)C(CC[C@H]2[C@](C)(/C=C/C=C(\C)C(=O)NCCCCCC)[C@@H](O)CC[C@@]21C)C5)C1=CC(C)(C)OC(C)(C)C1[C@@H]3O` (stereo not given in full): the “Effective concentration” value is recorded as approximately 0.5 p.p.m.

Consider `C=C(C)[C@H]1C(=O)c2c3c(cc4c5c(n1c24)[C@@]1(C)C(CC[C@H]2[C@](C)(/C=C/C=O)[C@@H](O)CC[C@@]21C)C5)C1=CC(C)(C)OC(C)(C)C1[C@@H]3O` (stereo not given in full), for which the “Effective concentration” value is approximately 10 p.p.m.

On to `C=C(C)[C@H]1C(=O)c2c3c(cc4c5c(n1c24)[C@@]1(C)C(CC[C@H]2[C@](C)(/C=C/C=C(\C)C(=O)OCCCO)[C@@H](O)CC[C@@]21C)C5)C1=CC(C)(C)OC(C)(C)C1[C@@H]3O` (stereo not given in full), for which the “Effective concentration” value amounted to 10 p.p.m.

For `C=C(C)[C@H]1C(=O)c2c3c(cc4c5c(n1c24)[C@@]1(C)C(CC[C@H]2[C@](C)(/C=C/C=C(\C)C(=O)NCCO)[C@@H](O)CC[C@@]21C)C5)C1=CC(C)(C)OC(C)(C)C1[C@@H]3O` (stereo not given in full), the “Effective concentration” value was determined as 0.5 p.p.m.

Turning to `C=C(C)[C@H]1C(=O)c2c3c(cc4c5c(n1c24)[C@@]1(C)C(CC[C@H]2[C@](C)(/C=C/C=C(\C)C(=O)OCCO)[C@@H](O)CC[C@@]21C)C5)C1=CC(C)(C)OC(C)(C)C1[C@@H]3O` (stereo not given in full), the “Effective concentration” value is approximately 1 p.p.m.

Turning to `C=C(C)[C@H]1C(=O)c2c3c(cc4c5c(n1c24)[C@@]1(C)C(CC[C@H]2[C@](C)(/C=C/C=C(\C)C(N)=O)[C@@H](O)CC[C@@]21C)C5)C1=CC(C)(C)OC(C)(C)C1[C@@H]3O` (stereo not given in full), the “Effective concentration” value is listed as approximately 0.1 p.p.m.

With `C=C(C)[C@H]1C(=O)c2c3c(cc4c5c(n1c24)[C@@]1(C)C(CC[C@H]2[C@](C)(/C=C/C=C(\C)C(=O)SCC)[C@@H](O)CC[C@@]21C)C5)C1=CC(C)(C)OC(C)(C)C1[C@@H]3O` (stereo not given in full), the “Effective concentration” value is given as more than 1 p.p.m.

As for `C=C(C)[C@H]1C(=O)c2c3c(cc4c5c(n1c24)[C@@]1(C)C(CC[C@H]2[C@](C)(/C=C/C=C(\C)C(=O)NCCN(C)C)[C@@H](O)CC[C@@]21C)C5)C1=CC(C)(C)OC(C)(C)C1[C@@H]3O` (stereo not given in full), the “Effective concentration” value was found to be 10 p.p.m.

For `C=C(C)[C@H]1C(=O)c2c3c(cc4c5c(n1c24)[C@@]1(C)C(CC[C@H]2[C@](C)(/C=C/C=C(\C)C(=O)N4CCN(C)CC4)[C@@H](O)CC[C@@]21C)C5)C1=CC(C)(C)OC(C)(C)C1[C@@H]3O` (stereo not given in full), the “Effective concentration” value was 1 p.p.m.

As to `C=C(C)[C@H]1C(=O)c2c3c(cc4c5c(n1c24)[C@@]1(C)C(CC[C@H]2[C@](C)(/C=C/C=C(\C)C(=O)N4CCN(C(=O)OCC)CC4)[C@@H](O)CC[C@@]21C)C5)C1=CC(C)(C)OC(C)(C)C1[C@@H]3O` (stereo not given in full), the “Effective concentration” value turned out to be 0.1 p.p.m.

Take `C=C(C)[C@H]1C(=O)c2c3c(cc4c5c(n1c24)[C@@]1(C)C(CC[C@H]2[C@](C)(/C=C/C=C(\C)C(=O)NCCC(=O)O)[C@@H](O)CC[C@@]21C)C5)C1=CC(C)(C)OC(C)(C)C1[C@@H]3O` (stereo not given in full): the “Effective concentration” value is more than 10 p.p.m.

`C=C(C)[C@H]1C(=O)c2c3c(cc4c5c(n1c24)[C@@]1(C)C(CC[C@H]2[C@](C)(/C=C/C=C(\C)C(=O)NC(C)(C)C(=O)N(C)C)[C@@H](O)CC[C@@]21C)C5)C1=CC(C)(C)OC(C)(C)C1[C@@H]3O` (stereo not given in full): the “Effective concentration” value amounted to 0.01 p.p.m.

Take `C=C(C)[C@H]1C(=O)c2c3c(cc4c5c(n1c24)[C@@]1(C)C(CC[C@H]2[C@](C)(/C=C/C=C(\C)C(=O)O)[C@@H](O)CC[C@@]21C)C5)C1=CC(C)(C)OC(C)(C)C1[C@@H]3O` (stereo not given in full) [NOD ACID A]: the “Effective concentration” value amounted to 1 p.p.m.

In the case of `C=C(C)[C@H]1C(=O)c2c3c(cc4c5c(n1c24)[C@@]1(C)C(CC[C@H]2[C@](C)(/C=C/C=C(\C)C(=O)N4CCN(S(C)(=O)=O)CC4)[C@@H](O)CC[C@@]21C)C5)C1=CC(C)(C)OC(C)(C)C1[C@@H]3O` (stereo not given in full) [NODULISPORAMIDE], the “Effective concentration” value is listed as approximately 0.01 p.p.m.

The record behind these values is ChEMBL document CHEMBL1132786, “Chemical modification of nodulisporic acid A: preliminary structure-activity relationships” (2000).
